# Numbered stars: 1 amine (or outer) side, 2 acyl side, 3 side chain; on linkers, the order of the positions; unused ones are H or OH. Bridge positions count the residues as written; N and C are the ends. Square brackets hold non-standard residues; d marks the D form. Peptide text beside a SMILES is read from it. I, II: the chains in the order shown. Actinocin(9to1) = Cc1c2oc3c(C)ccc(C(=O)[*:1])c3nc-2c(C(=O)[*:2])c(N)c1=O; NMeV = CN[C@H](C(=O)O)C(C)C; Sar = CNCC(=O)O
# How the values were obtained:
# NO production [1] = test: NO measurement (NOx, Griess reaction) in HAECs; assay type: cell-based, human
# Method: (§1) Human aortic endothelial cells (HAECs) were purchased from Cascade Biologics (Portland, Oreg.) and maintained in Medium M200 containing low serum growth supplement according to the supplier's protocol. Confluent HAECs were incubated with starvation medium (M200 plus only 0.5% fetal bovine serum) for 24 hr prior to the experimental protocols.
# (§2) NO was estimated as nitrate/nitrite (NOx) by Griess reaction after conversion of nitrate to nitrite by nitrate reductase, using the Nitric Oxide Assay Kit (Calbiochem). The concentration of NOx from cell lysates was expressed as nmol/mg proteins.
# arginase [2] = test: Arginase activity in rat aortic rings; conditions: rat aortic rings E+, preincubation with BEC
# Method: (§3) Cell lysates were prepared with lysis buffer (50 mM Tris-HCl, pH7.5, 0.1 mM EDTA and protease inhibitors) by brief vigorous vortexing for 30 min and incubation and centrifuging for 20 min at 14,000 g at 4° C. The supernatants are used for arginase activity as described previously^18. Arginase activity from aortic vessels was assayed as described above following homogenization in lysis buffer.
# NO production [3] = test: NO production in rat aortic rings; conditions: rat aortic rings E+, pre-incubation with BEC
# Method: FIGS. 7A-B depict arginase dependent endothelial dysfunction in OxLDL treated rat aorta. Arginase inhibition restores endothelial function and increases NO production in rat aortic rings. […] The increase in arginase activity was blocked by preincubation with BEC ([…], *p=0.0007, **p<0.0001 vs. untreated control; #p=0.0003 vs. OxLDL; n=5).
# as §2
# Apo E knockout mice = test: Aortic pulse wave velocity (vascular stiffness) in Apo E knockout mice; assay type: in vivo; conditions: Apo E KO mice, HC diet
# Description: (§4) FIGS. 8A-B Arginase inhibition decreases vascular stiffness and restores endothelial function in Apo E knockout mice. 16 WT mice were randomized to receive a normal or high cholesterol (HC) diet. […] Aortic Pulse wave velocity (PWV) (measured by 20 MHz pulsed Doppler from arch to abdominal aorta (4 cm) was used to measure vascular stiffness before and after pump implanatation.
# arginase [4] = test: Aortic arginase activity in Apo E knockout mice; assay type: in vivo; conditions: Apo E KO mice, BEC treated
# Method: as §4, §3
# NO production [5] = test: Aortic NO production (griess method) in Apo E knockout mice; assay type: in vivo; conditions: Apo E KO mice, BEC treated
# human arginase II = target: T1, human arginase II (Homo sapiens, UniProt P78540); conditions: cited from earlier work
# T1 sequence (P78540 23-354): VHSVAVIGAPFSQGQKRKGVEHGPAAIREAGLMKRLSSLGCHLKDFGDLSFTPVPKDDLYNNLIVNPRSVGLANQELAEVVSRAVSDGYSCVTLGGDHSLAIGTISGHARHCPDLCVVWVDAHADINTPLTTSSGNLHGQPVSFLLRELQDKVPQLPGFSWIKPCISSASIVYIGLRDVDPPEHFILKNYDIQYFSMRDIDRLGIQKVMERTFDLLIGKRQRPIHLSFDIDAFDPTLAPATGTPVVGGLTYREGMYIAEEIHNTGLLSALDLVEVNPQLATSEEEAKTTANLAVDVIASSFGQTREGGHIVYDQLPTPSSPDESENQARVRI
# arginase II [6] = test: Quantitative PCR of arginase II expression in HAECs; assay type: cell-based, human; conditions: HAEC
# Method: Total RNA from Ox-LDL-stimulated HAEC was prepared using Trizol Reagent according to the supplier's protocol (Gibco). To exclude contamination with genomic DNA, total RNA was treated with RNase-free DNase (Roche). PCR reaction was performed in iCycler optical system (Bio-rad) using SYBR green PCR master mix. The reverse transcriptional PCR primers are as follows: Arginase I: Forward 5′-GGC AAG GTG GCA GAA GTC A-3′, Reverse 5′-TGGTTGTCAGTGGAGTGTTG-3′, size of PCR products=163 bp; Arginase II: Forward 5′-CTATCAGCACTGGATCTTGTTG-3′, Reverse 5′-GGGAGTAGGAAGTTGGTCATAG-3′, size of PCR products=156 bp. 18S rRNA gene (Forward 5′-CGGCGACGACCCATTCGAAC-3′, Reverse 5′-GAATCGAACCCTGATTCCCCGTC-3′, size of PCR product=99 bp) was amplified as a control.
# arginase II [7] = test: Western blot of arginase II protein in HAECs; assay type: cell-based, human; conditions: HAEC, cycloheximide 10 μM co-incubation
# Method: Transient transfection of arginase-SiRNA (Santa Cruz Biotechnology) was performed with Oligofectamine reagent according to instructions provided by the supplier (Invitrogen). In brief, 8 μL of Oligofectamine was added to 17 μL Opti-MEM I reduced serum medium (Gibco), incubated for 5 minutes at room temperature, mixed with 180 μL Opti-MEM medium containing different amount of SiRNA, and further incubated for 15 minutes. The SiRNA-Oligofectamine complex was then overlaid on cells (each well of a 6 well culture dish). After incubation for 6 h, endothelial growth medium containing 3 times serum was added for making normal growth medium of 1× serum concentration. Transfected cells were then further incubated for 36 hr and starved for 24 hr prior to experiments and then stimulated with OxLDL for additional 6 hours.
# Cells were lysed in SDS sample buffer (62.5 mM Tris, pH6.8, 2% SDS, and 10% Glycerol) and then sonicated for 5 s to reduce sample viscosity. Each sample was resolved by 10% SDS-PAGE, transferred to PVDF membrane (Bio-rad), analysed with antibodies according to the supplier's protocol, and visualized with peroxidase and an enhanced-chemiluminescence system (Pierce). Normalization was performed using the anti-β-tubulin antibody (BD bioscience, 1:1,000). Densitometric analysis of bands was performed with NIH ImageJ program.
# arginase [8] = test: Arginase activity assay in HAEC lysates; assay type: cell-based, human
# Method: as §1, §3
# HAECs = test: Immunofluorescence of arginase II and beta-tubulin in HAECs; assay type: cell-based, human; conditions: HAEC, nocodazole 50 μM, 30 minutes
# Method: HAECs were cultured on coverslips coated with 25 µg/ml human plasma fibronectin (Invitrogen). Cells were then fixed and permeabilized with 3% paraformaldehyde and 0.5% Triton X-100 in PBS for 2 minutes, followed by 20 minutes of 3% paraformaldehyde alone. Samples were prepared for immunofluorescence analysis by incubating with a rabbit polyclonal antisera against arginase II (Santa Cruz Biotechnology, 1:50) and a mouse monoclonal antibody against β-tubulin (BD Biosciences, 1:50) for 30 minutes at 37° C. They were then rinsed in tris-buffered saline and incubated with Cy5-conjugated anti-rabbit IgG and Cy3-conjugated anti-mouse IgG (Chemicon, Temecula, Calif.). Images were acquired using a Nikon TE-200 epifluorescence microscope (with a 60× objective, and collected using Openlab software (Improvision, Lexington, Mass.) and an internally cooled 12-bit CCD camera (CoolsnapHQ, Photometrics, Tucson, Ariz.).
compound,measurement,setting,value
"N[C@@H](CSCCB(O)O)C(=O)O [BEC, S-(2-boronoethyl)-L-cysteine]",effect on HAEC NOx production,"NO production [1]; BEC alone, no OxLDL",no effect
same,prevention of OxLDL-dependent decrease in NO,"NO production [1]; HAEC, BEC 10 μmol/L, all time points from 4 hrs",prevents
same,"NOx production, OxLDL+BEC vs. control","NO production [1]; HAEC, OxLDL 50 μg/ml + BEC 10 μmol/L, 4 hrs",102%
same,NOx production,"NO production [1]; HAEC, OxLDL + BEC 10 μmol/L, 4 hrs, control 14.24±0.95",14.58±0.94 nmol/mg proteins
same,OxLDL-induced increase in arginase activity,arginase [2],blocked
same,vascular NO production following OxLDL treatment,NO production [3],increased vascular NO production
same,Aortic pulse wave velocity (PWV),"Apo E knockout mice; BEC group, before pump implantation",4.9±0.22 m/sec
same,Aortic pulse wave velocity (PWV),Apo E knockout mice; after 4 weeks BEC (1 mg/mice) by osmotic infusion pump,4.0±0.25 m/sec
same,aortic arginase activity,arginase [4],significant decrease
same,aortic NO production,NO production [5],restoration of NO production to WT
same,Ki,human arginase II,210 nM
"Cc1c2oc3c(C)ccc(C(=O)N[C@@H]4C(=O)N[C@H](C(C)C)C(=O)N5CCC[C@H]5C(=O)N(C)CC(=O)N(C)[C@@H](C(C)C)C(=O)O[C@@H]4C)c3nc-2c(C(=O)N[C@@H]2C(=O)N[C@H](C(C)C)C(=O)N3CCC[C@H]3C(=O)N(C)CC(=O)N(C)[C@@H](C(C)C)C(=O)O[C@@H]2C)c(N)c1=O [actinomysin D] (I: T[dV]P[Sar][NMeV] / II: T[dV]P[Sar][NMeV]; ester I:1-I:C, II:1-II:C; linker I:N-II:N via Actinocin(9to1))","arginase II expression (quantitative PCR), relative to control 1.0±0.06",arginase II [6]; OxLDL 4 hrs + actinomysin D 10 μg/ml,1.1±0.15
same,block of OxLDL-induced arginase II expression,arginase II [6]; actinomysin D 10 μg/ml,completely blocked
C[C@@H]1C[C@@H]([C@H](O)CC2CC(=O)NC(=O)C2)C(=O)[C@@H](C)C1 [cycloheximide],block of OxLDL-induced arginase II protein increase,arginase II [7],completely blocked
C/C(=C\c1csc(C)n1)[C@@H]1C[C@@H]2O[C@]2(C)CCC[C@H](C)[C@H](O)[C@@H](C)C(=O)C(C)(C)[C@@H](O)CC(=O)O1 [epothilone B],arginase activity,arginase [8]; OxLDL + epothilone B 0.1 μmol/L,73.55±2.82 μmol Urea/mg protein/min
same,endothelial NO production,"NO production [1]; HAEC, OxLDL + epothilone B 0.1 μmol/L",8.05±0.47 nmol/mg proteins
same,basal endothelial cell NOx,"NO production [1]; HAEC, epothilone B alone",small but not statistically significant increase
COC(=O)Nc1nc2ccc(C(=O)c3cccs3)cc2[nH]1 [nocodazole],arginase activity,"arginase [8]; nocodazole 5 μmol/L, control 40.4±7.63",100.7±11.17 μmol Urea/mg protein/min
same,arginase activity,"arginase [8]; nocodazole 50 μmol/L, control 40.4±7.63",134.3±0.28 μmol Urea/mg protein/min
same,arginase activity,arginase [8]; nocodazole in combination with Ox-LDL,141.9±7.07 μmol Urea/mg protein/min
same,NOS measurement,"NO production [1]; HAEC, nocodazole treatment",reciprocal decrease
same,arginase II localization (immunofluorescence),HAECs,diffuse arginase localization

# Reference: patent US20090181010A1, “Arginase II: a target for the prevention of atherosclerosis” (The Johns Hopkins University, priority 2006, published 2009)
